The values below come from article PMC5908784, “Extracellular loops 2 and 3 of the calcitonin receptor selectively modify agonist binding and efficacy” (Biochemical Pharmacology, 2018).

Structures are written as SMILES. Positions count from the first letter of the chain named. Read-outs that look alike come from different tables or passages of the source. Where a SMILES comes first, the peptide text is derived from it. Bridges are numbered along the chain shown (N, C = ends).

Common to all, as to test: IP1 accumulation
Common to all, as to type: cell-based

One assay deals with T1, hCTR Y374A (Homo sapiens, UniProt P30988, Y374A).
T1 construct: c-Myc (N); expressed in transfected cells
T1 sequence (P30988 25-474 Y374A): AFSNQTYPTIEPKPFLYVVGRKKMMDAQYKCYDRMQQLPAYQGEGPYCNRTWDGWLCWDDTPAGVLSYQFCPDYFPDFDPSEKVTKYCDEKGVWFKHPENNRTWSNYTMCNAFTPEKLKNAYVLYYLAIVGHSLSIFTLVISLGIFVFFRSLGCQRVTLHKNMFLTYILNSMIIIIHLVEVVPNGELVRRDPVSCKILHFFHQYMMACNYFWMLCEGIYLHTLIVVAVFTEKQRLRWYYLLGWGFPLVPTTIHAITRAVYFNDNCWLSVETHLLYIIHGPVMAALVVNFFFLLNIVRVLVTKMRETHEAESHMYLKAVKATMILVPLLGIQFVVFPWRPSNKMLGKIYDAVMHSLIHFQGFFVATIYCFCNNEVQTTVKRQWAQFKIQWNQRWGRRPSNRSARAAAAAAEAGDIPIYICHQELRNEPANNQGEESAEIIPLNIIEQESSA
The following applies: mean ± S.E.M.; for Emax: IP1 maximal response, SEM. In outline: (§1)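 Concentration-response curves were fitted to a 3-parameter logistic model to estimate EC50 and Emax. Cells had been exposed to ligand for 60 min with LiCl, and lysate IP1 determined by HTRF, with normalization to 100 μM ATP.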

The target in another assay is T2, hCTR V357A (Homo sapiens, UniProt P30988, V357A).
T2 construct: c-Myc (N); expressed in transfected cells
T2 sequence (P30988 25-474 V357A): T1 sequence (P30988 25-474 Y374A) with V333A, A350Y
The following applies: mean ± S.E.M.; for Emax: IP1 maximal response, SEM. In outline: as §1

The target of a further assay is T3, hCTR WT (Homo sapiens, UniProt P30988).
T3 construct: expressed in transfected cells
T3 sequence (P30988 25-474): T1 sequence (P30988 25-474 Y374A) with A350Y
The following applies: for Emax: read-out: Emax (% WT), SEM. A digest of the protocol:
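Ligand-induced IP1 (60 min, LiCl) measured by HTRF; normalized to 100 μM ATP response.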

A further assay addresses T4, hCTR F359A (Homo sapiens, UniProt P30988, F359A).
T4 construct: expressed in transfected cells
T4 sequence (P30988 25-474 F359A): T1 sequence (P30988 25-474 Y374A) with F335A, A350Y
The following applies: for Emax: read-out: Emax (% WT), SEM. In outline:
as §1

A further assay has as its target T5, hCTR F285A (Homo sapiens, UniProt P30988, F285A).
T5 construct: expressed in transfected cells
T5 sequence (P30988 25-474 F285A): T1 sequence (P30988 25-474 Y374A) with F261A, A350Y
The following applies: mean ± S.E.M.; for Emax: IP1 maximal response, SEM. A digest of the protocol:
as §1

The mark [1] stands for this setting: IP1, CV1-FlpIn cells, 60 min, LiCl.

Take `CC(C)C[C@H](NC(=O)[C@H](CCCCN)NC(=O)CNC(=O)[C@H](CC(C)C)NC(=O)[C@@H](NC(=O)[C@@H]1CSSC[C@H](N)C(=O)N[C@@H](CO)C(=O)N[C@@H](CC(N)=O)C(=O)N[C@@H](CC(C)C)C(=O)N[C@@H](CO)C(=O)N[C@@H]([C@@H](C)O)C(=O)N1)C(C)C)C(=O)N[C@@H](CO)C(=O)N[C@@H](CCC(N)=O)C(=O)N[C@@H](CCC(=O)O)C(=O)N[C@@H](CC(C)C)C(=O)N[C@@H](Cc1c[nH]cn1)C(=O)N[C@@H](CCCCN)C(=O)N[C@@H](CC(C)C)C(=O)N[C@@H](CCC(N)=O)C(=O)N[C@H](C(=O)N[C@@H](Cc1ccc(O)cc1)C(=O)N1CCC[C@H]1C(=O)N[C@@H](CCCNC(=N)N)C(=O)N[C@H](C(=O)N[C@@H](CC(N)=O)C(=O)N[C@H](C(=O)NCC(=O)N[C@@H](CO)C(=O)NCC(=O)N[C@H](C(=O)N1CCC[C@H]1C(N)=O)[C@@H](C)O)[C@@H](C)O)[C@@H](C)O)[C@@H](C)O` [sCT]: the Emax at hCTR Y374A came to 102 ± 6%; on hCTR V357A, 39 ± 3%; at hCTR WT, 100 ± 3%; on hCTR F359A, 125 ± 6%; at hCTR F285A, 114 ± 6%.

Take `CSCC[C@H](NC(=O)CNC(=O)[C@H](CO)NC(=O)[C@H](Cc1ccccc1)NC(=O)[C@H](CCCNC(=N)N)NC(=O)[C@H](Cc1c[nH]cn1)NC(=O)[C@H](Cc1ccccc1)NC(=O)[C@H](CC(N)=O)NC(=O)[C@H](CC(N)=O)NC(=O)[C@H](CC(C)C)NC(=O)[C@H](CC(N)=O)NC(=O)[C@H](CCCNC(=N)N)NC(=O)[C@H](Cc1c[nH]c2ccccc12)NC(=O)[C@H](Cc1ccc(O)cc1)NC(=O)[C@H](C)NC(=O)[C@H](CO)NC(=O)[C@H](CC(C)C)NC(=O)[C@@H](NC(=O)[C@@H]1CSSC[C@H](N)C(=O)N[C@@H](CO)C(=O)N[C@@H](CC(N)=O)C(=O)N[C@@H](CC(C)C)C(=O)N[C@@H](CO)C(=O)N[C@@H]([C@@H](C)O)C(=O)N1)C(C)C)C(=O)NCC(=O)N[C@@H](Cc1ccccc1)C(=O)NCC(=O)N1CCC[C@H]1C(=O)N[C@@H](CCC(=O)O)C(=O)N[C@H](C(=O)N1CCC[C@H]1C(N)=O)[C@@H](C)O` [pCT] (H-CSNLSTCVLSAYWRNLNNFHRFSGMGFGPETP-NH2; disulfide 1-7): the EC50 at hCTR Y374A (setting [1]) is 12.3 nM; on hCTR V357A (setting [1]), 15.5 nM; at hCTR WT (WT, IP1, CV1-FlpIn cells, 60 min, LiCl, mean ± S.E.M.), 1.38 nM; on hCTR F359A (F359A, IP1, CV1-FlpIn cells, 60 min, LiCl, mean ± S.E.M.), 13.2 nM; at hCTR F285A (setting [1]), 5.01 nM. For the same molecule, the maximal response (Emax) on hCTR Y374A is 106 ± 6%; at hCTR V357A it was 48 ± 4%; on hCTR WT (WT, IP1 maximal response, mean ± S.E.M.), 100 ± 3%; at hCTR F359A (F359A, IP1 maximal response, mean ± S.E.M.), 77 ± 6%; at hCTR F285A it was 112 ± 13%.

Consider `CC[C@H](C)[C@H](NC(=O)[C@H](C)NC(=O)[C@@H](NC(=O)[C@H](CCC(N)=O)NC(=O)[C@@H]1CCCN1C(=O)[C@H](Cc1ccccc1)NC(=O)[C@@H](NC(=O)[C@H](Cc1c[nH]cn1)NC(=O)[C@H](Cc1ccccc1)NC(=O)[C@H](CCCCN)NC(=O)[C@H](CC(N)=O)NC(=O)[C@H](Cc1ccccc1)NC(=O)[C@H](CC(=O)O)NC(=O)[C@H](CCC(N)=O)NC(=O)[C@@H](NC(=O)[C@H](Cc1ccc(O)cc1)NC(=O)[C@@H](NC(=O)CNC(=O)[C@H](CC(C)C)NC(=O)[C@H](CCSC)NC(=O)[C@@H]1CSSC[C@H](N)C(=O)NCC(=O)N[C@@H](CC(N)=O)C(=O)N[C@@H](CC(C)C)C(=O)N[C@@H](CO)C(=O)N[C@@H]([C@@H](C)O)C(=O)N1)[C@@H](C)O)[C@@H](C)O)[C@@H](C)O)[C@@H](C)O)C(=O)NCC(=O)N[C@H](C(=O)NCC(=O)N[C@@H](C)C(=O)N1CCC[C@H]1C(N)=O)C(C)C` [hCT], for which the Emax at hCTR Y374A worked out at 110 ± 9%; on hCTR V357A, 50 ± 4%; at hCTR WT it was 100 ± 3%; on hCTR F359A, 101 ± 9%; on hCTR F285A it was 58 ± 6%.
